In ChEMBL document CHEMBL1201862, “PubChem BioAssay data set” (2004):
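How tested: cells in 96-well plates exposed to compound for 48 hours at five concentrations. GI50 marks 50% less growth.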 Calls of active or inactive are those of the source. Cut-off read from the data, not from the text of the source: active = GI50 up to about 1.1 µM and inactive = higher.

Columns and labels:
Test in all cases: inhibition of tumour cell growth, NCI panel, 48 h
NCI-H23 = tested on: NCI-H23
LOX IMVI = tested on: LOX IMVI
NCI-H460 = tested on: NCI-H460
RPMI-8226 = tested on: RPMI-8226
NCI-H226 = tested on: NCI-H226
CCRF-CEM = tested on: CCRF-CEM
A498 = tested on: A498
HL-60 = tested on: HL-60
SW-620 = tested on: SW-620
UO-31 = tested on: UO-31
Malme-3M = tested on: Malme-3M
A549 = tested on: A549
SF-539 = tested on: SF-539
K562 = tested on: K562
SNB-75 = tested on: SNB-75
ACHN = tested on: ACHN
MOLT-4 = tested on: MOLT-4
OVCAR-5 = tested on: OVCAR-5

Measured: GI50

Cc1cc(O)cc2c1O[C@@]1(C)CCC3[C@@]4(C)CC[C@H](O)C(C)(C)C4CC[C@@]3(C)[C@H]1C2 (stereo partly drawn)
inactive: NCI-H23 10 µM | LOX IMVI 6.07 µM | NCI-H460 4.41 µM | RPMI-8226 2.18 µM | NCI-H226 10.7 µM | CCRF-CEM 2.55 µM | A498 19.6 µM | HL-60 2.99 µM | SW-620 6.14 µM | UO-31 8.45 µM | Malme-3M 9.06 µM | A549 5.15 µM | SF-539 2.23 µM | K562 2.47 µM | SNB-75 3.03 µM | ACHN 5.24 µM | MOLT-4 1.55 µM

CC(=O)Nc1ccc(-c2nnc(SCC(=O)Nc3cccc(Cl)c3)o2)cc1
inactive: NCI-H23 9.79 µM | LOX IMVI 10.3 µM | NCI-H460 13.1 µM | RPMI-8226 15 µM | NCI-H226 17.7 µM | OVCAR-5 20.7 µM | CCRF-CEM 6.18 µM | A498 16.3 µM | HL-60 18.2 µM | SW-620 13.5 µM | UO-31 27.7 µM | Malme-3M 12.4 µM | A549 18.7 µM | SF-539 20.1 µM | K562 14.4 µM | SNB-75 20 µM | ACHN 15.2 µM | MOLT-4 19.1 µM

O=C(c1cccc2ccccc12)N1CCC(C2CCN(C(=O)c3cccc4ccccc34)CC2)CC1
inactive: NCI-H23 > 100 µM | LOX IMVI > 100 µM | NCI-H460 > 100 µM | RPMI-8226 91.8 µM | NCI-H226 > 100 µM | OVCAR-5 99.1 µM | CCRF-CEM > 100 µM | A498 > 100 µM | HL-60 65.5 µM | SW-620 > 100 µM | UO-31 > 100 µM | Malme-3M > 100 µM | A549 > 100 µM | SF-539 > 100 µM | K562 > 100 µM | SNB-75 23.8 µM | ACHN > 100 µM | MOLT-4 > 100 µM

CC(NS(=O)(=O)c1ccc([N+](=O)[O-])cc1)C(=O)O (stereo not drawn)
inactive: NCI-H23 > 100 µM | LOX IMVI > 100 µM | NCI-H460 > 100 µM | RPMI-8226 > 100 µM | NCI-H226 > 100 µM | OVCAR-5 > 100 µM | CCRF-CEM > 100 µM | A498 > 100 µM | HL-60 > 100 µM | SW-620 > 100 µM | UO-31 > 100 µM | Malme-3M > 100 µM | A549 > 100 µM | SF-539 > 100 µM | K562 > 100 µM | SNB-75 80.7 µM | ACHN > 100 µM | MOLT-4 > 100 µM

CC(=O)N1CCN(C=S)CC1
inactive: NCI-H23 > 100 µM | LOX IMVI > 100 µM | NCI-H460 > 100 µM | RPMI-8226 > 100 µM | NCI-H226 > 100 µM | OVCAR-5 > 100 µM | CCRF-CEM > 100 µM | A498 > 100 µM | HL-60 > 100 µM | SW-620 > 100 µM | UO-31 > 100 µM | Malme-3M > 100 µM | A549 > 100 µM | SF-539 > 100 µM | K562 > 100 µM | SNB-75 > 100 µM | ACHN > 100 µM | MOLT-4 > 100 µM

O=C1[C@@H]2C3C=CC([C@H]4C(=O)N(CO)C(=O)[C@@H]34)[C@@H]2C(=O)N1CO
inactive: NCI-H23 > 92.9 µM | LOX IMVI 42.1 µM | NCI-H460 30.2 µM | RPMI-8226 19.4 µM | NCI-H226 > 100 µM | OVCAR-5 > 100 µM | CCRF-CEM 25.2 µM | A498 > 100 µM | HL-60 24.9 µM | SW-620 26.1 µM | UO-31 > 65.3 µM | Malme-3M > 100 µM | A549 > 64 µM | SF-539 47.3 µM | K562 61.2 µM | SNB-75 > 78.2 µM | ACHN > 50.7 µM | MOLT-4 34 µM

N#CSCc1nc2ccc(Cl)cc2c(-c2ccccc2)[n+]1[O-]
inactive: LOX IMVI 18 µM | NCI-H460 40.3 µM | RPMI-8226 25.3 µM | NCI-H226 33.7 µM | OVCAR-5 21 µM | CCRF-CEM 14.5 µM | A498 > 100 µM | HL-60 21.5 µM | SW-620 16.6 µM | UO-31 18.7 µM | Malme-3M 24.6 µM | A549 33.8 µM | SF-539 > 10 µM | K562 25.7 µM | SNB-75 32.7 µM | ACHN 16.9 µM | MOLT-4 14.6 µM

CCC(C)OC(=O)C1C2CCC(O2)C1C(=O)O (stereo not drawn)
inactive: NCI-H23 > 100 µM | LOX IMVI > 41.9 µM | NCI-H460 24.7 µM | RPMI-8226 > 48.3 µM | NCI-H226 > 100 µM | OVCAR-5 > 100 µM | CCRF-CEM > 100 µM | A498 > 47.3 µM | HL-60 > 100 µM | UO-31 > 100 µM | Malme-3M > 100 µM | A549 > 60.7 µM | SF-539 99.8 µM | K562 > 100 µM | SNB-75 > 100 µM | ACHN > 72.4 µM | MOLT-4 > 87.1 µM

O=C1NC2C3CC(OCc4ccccc4)(OCc4ccccc4)C2OC3O1 (stereo not drawn)
inactive: NCI-H23 > 50 µM | LOX IMVI > 50 µM | RPMI-8226 > 50 µM | NCI-H226 > 50 µM | OVCAR-5 > 50 µM | CCRF-CEM > 50 µM | A498 > 50 µM | HL-60 > 50 µM | SW-620 > 50 µM | UO-31 > 50 µM | Malme-3M > 50 µM | A549 > 50 µM | SF-539 > 50 µM | K562 > 50 µM | SNB-75 48.6 µM | MOLT-4 > 50 µM

Clc1ccc(SCCCCCCCCCCSc2ccc(Cl)cc2)cc1
inactive: NCI-H23 > 100 µM | LOX IMVI > 100 µM | NCI-H460 > 59.7 µM | RPMI-8226 > 100 µM | NCI-H226 > 100 µM | OVCAR-5 > 61 µM | CCRF-CEM > 100 µM | A498 > 73.8 µM | HL-60 > 100 µM | SW-620 37.5 µM | UO-31 > 100 µM | Malme-3M > 56.5 µM | A549 > 73.8 µM | SF-539 > 100 µM | K562 > 91.2 µM | SNB-75 > 100 µM | ACHN > 58.7 µM | MOLT-4 > 100 µM

C[C@H]1C(=O)CC[C@]2(C)CCC(C(C)(C)O)CC12O (stereo partly drawn)
inactive: NCI-H23 > 100 µM | LOX IMVI > 100 µM | NCI-H460 > 100 µM | RPMI-8226 > 100 µM | NCI-H226 > 100 µM | OVCAR-5 > 100 µM | CCRF-CEM > 100 µM | A498 > 100 µM | HL-60 > 100 µM | SW-620 > 100 µM | UO-31 > 100 µM | Malme-3M > 100 µM | A549 > 100 µM | SF-539 > 100 µM | K562 > 100 µM | SNB-75 12.8 µM | ACHN > 100 µM | MOLT-4 > 100 µM
